Patent US7198946B2, “Screening for agents effective in decreasing abnormal macrophages associated with amyotrophic lateral sclerosis” (Pathologica, LLC, priority 2001, dated 2007)

System: CD14+ circulating monocytes from ALS patients
Experiment: Effect of polyamine analogs on CD14+ monocytes in cultured PBMCs, anti-CD14 flow cytometry
Format: cell-based, human
Conditions: 1.0 μM SL-11047, 6 days incubation; 6 ALS patients vs 1 normal subject and 1 MS patient (FIG. 5)
Text: Peripheral blood mononuclear cells (PBMCs) are isolated from heparin-treated whole blood by layering over Percoll, density 1.087, (Pharmacia, Piscataway, N.J.) and followed by centrifugation at 800×g. The cells that collect at the Percoll/plasma interface are harvested and washed with 0.01 M phosphate-buffered saline (PBS). Isolated cells are then suspended in RPMI 1640 culture medium, with 10% fetal bovine serum, at a concentration of about 1×10^6 cells/ml. Cells are allocated to polyvinyl culture tubes at 1 ml/tube. A polyamine analog such as SL-11047 is added to 3 tubes, to achieve final concentrations of 1.0, 0.1, and 0.01 micromolar. A fourth tube, for control, receives no (zero) drug. […]
On the […] of incubation, cells are removed from the incubator, washed with PBS and resuspended in PBS at 0.1 ml/tube. Detection of monocytes is detected by addition of fluorescein-conjugated anti-CD14 (DAKO Corp., Carpenteria, Calif.), for 20 minutes, at room temperature, protected from light. […]
An experiment as described above was performed with CD14+ circulating monocytes from 6 ALS patients, 1 multiple sclerosis (MS) patient and 1 normal (non-ALS) control subject. In this experiment, the cells from a patient were incubated with or without polyamine analog SL-11047 for 6 days and survival of CD14+ cells was determined. […]

With `CCNCCCNC/C=C\CNCCCNCC.Cl.Cl.Cl.Cl` [SL-11047, N,N′-bis(3-ethylaminopropyl)-cis-but-2-ene-1,4-diamine tetrahydrochloride] the “susceptibility to killing (percentage of CD14+ cells killed)” value was “substantially more susceptible to killing”.
